In patent US20220289794A1, “SYNTHETIC ANTIMICROBIAL PEPTIDES” (priority 2019, published 2022):
Converted amounts (≈) assume the structure as drawn. Where two headings read alike, the source gives them in different places. Positions of bridges follow the written chain, without caps; N, C: chain ends. Residues, ends and D or L forms follow the SMILES beside them.

Tests used:
[1] = test system: Methicillin-resistant Staphylococcus aureus MRSA (ATCC BAA-1556); conditions: ATCC BAA-1556
[2] = test system: Escherichia coli (E. Coli, ATCC 25922); conditions: ATCC 25922
[3] = test system: Pseudomonas aeruginosa (PSA, ATCC 27883); conditions: ATCC 27883
[4] = test system: Escherichia coli (ATCC 25922); conditions: ATCC 25922
[5] = test system: Klebsiella pneumoniae (KPC, ATCC BAA-1705); conditions: Table 26, Klebsiella pneumoniae (ATCC BAA-1705)
[6] = test system: Pseudomonas aeruginosa (PSA, ATCC 27883); experiment: Synergy checkerboard assay (FIC index); format: cell-based; conditions: Table 26, Pseudomonas aeruginosa (ATCC 27883)
[7] = test system: Pseudomonas aeruginosa (ATCC 27883); conditions: ATCC 27883
[8] = test system: Klebsiella pneumoniae (ATCC BAA-1705); conditions: ATCC BAA-1705
[9] = test system: Klebsiella pneumoniae (KPC, ATCC BAA-1705); conditions: ATCC BAA-1705
MRSA (ATCC BAA-1556) = conditions: Table 26, MRSA (ATCC BAA-1556)
[10] = test system: Methicillin-resistant Staphylococcus aureus MRSA (ATCC BAA-1556); conditions: ATCC BAA-1556; remark: listed apart in the source
[11] = test system: Escherichia coli (E. Coli, ATCC 25922); conditions: Table 26, Escherichia coli (ATCC 25922)
[12] = test system: Klebsiella pneumoniae (ATCC BAA-1705); format: cell-based
Method: (§1) All bacteria pathogens tested clinically reported multi-drug resistant strains. The antibacterial activity was tested against Gram-negative strains namely; Pseudomonas aeruginosa (PSA), Klebsiella pneumoniae (KPC), Escherichia coli (E. coli) and Gram-positive Methicillin-resistant Staphylococcus aureus (MRSA). The minimum inhibitory concentration (MIC) is the lowest concentration of the antibiotic that inhibits microbial growths. MIC is determined by visual inspection or use of spectrophotometer plate reader to determine media turbidity. On the other hand, the minimum bactericidal concentration (MBC) is the lowest concentration that kills […] of bacterial growth. Cytotoxicity of peptides in the hepatic cell line, human skin fibroblast cell line, heart/myocardium cells, and human lung fibroblast cells is shown in FIGS. 36-46). […] (IFX-315)-Au-NP with antibiotics are shown in FIGS. 49-58 when the gold nanoparticles are formed by the peptide followed by addition of the antibiotic. […] (IFX-301) with antibiotics (1:1 ratio) first and then used in the synthesis of Au-NP in antibacterial activities is shown in FIGS. 59-68.
(§2) The MBC is identified by determining the lowest concentration of antibacterial agent that reduces the viability (concentration of peptides necessary to achieve a bactericidal effect) of the initial bacterial inoculum by ≥99.9%.

[13] = test system: Pseudomonas aeruginosa (ATCC 27883); format: cell-based; conditions: ATCC 27883
Method: as §1, §2

[14] = test system: Methicillin-resistant Staphylococcus aureus MRSA (ATCC BAA-1556); format: cell-based
Method: as §1, §2

[15] = test system: Escherichia coli (ATCC 25922); format: cell-based
Method: as §1, §2

[16] = format: cell-based; conditions: Escherichia coli (ATCC 25922)
[17] = peptide in combination with antibiotics

Molecule | MRSA (ATCC BAA-1556) MIC [1] | E. coli (ATCC 25922) MIC [4] | PSA (ATCC 27883 MIC) [7] | KPC (ATCC BAA-1705) MIC [8] | KPC (ATCC BAA-1705) MBC [12] | PSA (ATCC 27883) MBC [13] | MRSA (ATCC BAA-1556) MBC [14] | E. coli (ATCC 25922) MBC [15] | other results
N=C(N)NCCC[C@@H]1NC(=O)[C@H](CCCNC(=N)N)NC(=O)[C@H](CCCNC(=N)N)NC(=O)[C@H](CCCCN)NC(=O)[C@H](Cc2c[nH]c3ccccc23)NC(=O)[C@H](Cc2c[nH]c3ccccc23)NC(=O)[C@H](Cc2c[nH]c3ccccc23)NC(=O)[C@H](Cc2c[nH]c3ccccc23)NC(=O)[C@H](CCCNC(=N)N)NC(=O)[C@H](CCCNC(=N)N)NC1=O [IFX-315, [R5W4K]] (cyclo(RRRRRWWWWK)) | – | – | – | – | – | – | – | – | MIC MRSA ATCC BAA-1556 [1]: 4 µg/mL (≈ 2.42 µM); Escherichia coli (ATCC 25922) MIC [2]: 16 µg/mL; Pseudomonas aeruginosa (ATCC 27883) MIC [3]: 16 µg/mL; MIC E. coli ATCC 25922 [4]: 16 µg/mL (≈ 9.67 µM); MIC (peptide) ([5]; peptide alone): MIC = 64 ug/ml; FIC (peptide) [5, 17]: FIC = 16 ug/ml; MIC (peptide) ([6]; peptide alone): MIC = 16 ug/ml; FIC (peptide) [6, 17]: FIC = 4 ug/ml; MIC P. aeruginosa ATCC 27883 [7]: 16 µg/mL (≈ 9.67 µM); MIC K. pneumoniae (ATCC BAA-1705) [8]: 32 µg/mL (≈ 19.3 µM); Klebsiella pneumoniae (ATCC BAA-1705) MIC [9]: 32 µg/mL; MIC (peptide) (MRSA (ATCC BAA-1556); peptide alone): MIC = 8 ug/ml; FIC (peptide) (MRSA (ATCC BAA-1556); [17]): FIC = 2 ug/ml; MRSA (ATCC BAA-1556) MIC [10]: 4 µg/mL; MIC (peptide) ([11]; peptide alone): MIC = 16 ug/ml; FIC (peptide) [11, 17]: FIC = 4 ug/ml
N=C(N)NCCC[C@H](NC(=O)[C@H](CCCNC(=N)N)NC(=O)[C@H](CCCNC(=N)N)NC(=O)[C@H](CCCNC(=N)N)NC(=O)[C@@H](N)CS)C(=O)N[C@@H](Cc1c[nH]c2ccccc12)C(=O)N[C@@H](Cc1c[nH]c2ccccc12)C(=O)N[C@@H](Cc1c[nH]c2ccccc12)C(=O)N[C@@H](Cc1c[nH]c2ccccc12)C(=O)N[C@@H](CS)C(=O)O [IFX-328] (H-CRRRRWWWWC-OH) | 64 µg/mL | 256 µg/mL | 512 µg/mL | 16 µg/mL | 32 µg/mL | 512 µg/mL | 128 µg/mL | 512 µg/mL | –
N=C(N)NCCC[C@@H]1NC(=O)[C@H](CS)NC(=O)[C@H](Cc2c[nH]c3ccccc23)NC(=O)[C@H](Cc2c[nH]c3ccccc23)NC(=O)[C@H](Cc2c[nH]c3ccccc23)NC(=O)[C@H](Cc2c[nH]c3ccccc23)NC(=O)[C@H](CS)NC(=O)[C@H](CCCNC(=N)N)NC(=O)[C@H](CCCNC(=N)N)NC(=O)[C@H](CCCNC(=N)N)NC1=O [IFX-329] (cyclo(RRRCWWWWCR)) | 8 µg/mL | 32 µg/mL | 128 µg/mL | 32 µg/mL | 32 µg/mL | 128 µg/mL | 32 µg/mL | 64 µg/mL | –
N=C(N)NCCC[C@@H]1NC(=O)[C@H](CCCNC(=N)N)NC(=O)[C@H](CCCNC(=N)N)NC(=O)[C@@H]2CSSC[C@H](NC(=O)[C@H](CCCNC(=N)N)NC1=O)C(=O)N[C@@H](Cc1c[nH]c3ccccc13)C(=O)N[C@@H](Cc1c[nH]c3ccccc13)C(=O)N[C@@H](Cc1c[nH]c3ccccc13)C(=O)N[C@@H](Cc1c[nH]c3ccccc13)C(=O)N2 [IFX-330] (cyclo(RRRCWWWWCR); disulfide 4-9) | 8 µg/mL | 32 µg/mL | 128 µg/mL | 32 µg/mL | 128 µg/mL | 256 µg/mL | 32 µg/mL | 64 µg/mL | –
Polymyxin B | – | – | – | – | – | – | – | – | MIC, MgCl2 ([16]; MH broth + 1 mM MgCl2): 1.5 µg/mL; MIC, CaCl2 ([16]; MH broth + 2 mM CaCl2): 0.7 µg/mL; MIC, NH4Cl ([16]; MH broth + 6 mM NH4Cl): 0.7 µg/mL; MIC, NaCl ([16]; MH broth + 150 mM NaCl): 0.7 µg/mL; MIC, FBS ([16]; MH broth + FBS (25%)): 0.7 µg/mL; MIC, KCl ([16]; MH broth + […] KCl): 0.7 µg/mL; MIC, MH Media ([16]; MH broth, no supplement): 0.7 µg/mL

Second part, led by results:

MRSA (ATCC BAA-1556) MIC [1] | E. coli (ATCC 25922) MIC [4] | PSA (ATCC 27883 MIC) [7] | KPC (ATCC BAA-1705) MIC [8] | Molecule | KPC (ATCC BAA-1705) MBC [12] | PSA (ATCC 27883) MBC [13] | MRSA (ATCC BAA-1556) MBC [14] | E. coli (ATCC 25922) MBC [15] | other results
32 µg/mL | 256 µg/mL | 512 µg/mL | 256 µg/mL | N=C(N)NCCC[C@@H]1NC(=O)[C@H](CCCNC(=N)N)NC(=O)[C@H](CCCNC(=N)N)NC(=O)[C@H](CCCNC(=N)N)NC(=O)[C@@H](N)CSSC[C@@H](C(=O)O)NC(=O)[C@H](Cc2c[nH]c3ccccc23)NC(=O)[C@H](Cc2c[nH]c3ccccc23)NC(=O)[C@H](Cc2c[nH]c3ccccc23)NC(=O)[C@H](Cc2c[nH]c3ccccc23)NC1=O [IFX-327] (H-CRRRRWWWWC-OH; disulfide 1-10) | 512 µg/mL | 512 µg/mL | 64 µg/mL | 512 µg/mL | –
16 µg/mL | 32 µg/mL | 128 µg/mL | 64 µg/mL | N=C(N)NCCC[C@H](NC(=O)[C@H](CCCNC(=N)N)NC(=O)[C@H](CCCNC(=N)N)NC(=O)[C@@H](N)CCCNC(=N)N)C(=O)N[C@@H](CS)C(=O)N[C@@H](Cc1c[nH]c2ccccc12)C(=O)N[C@@H](Cc1c[nH]c2ccccc12)C(=O)N[C@@H](Cc1c[nH]c2ccccc12)C(=O)N[C@@H](Cc1c[nH]c2ccccc12)C(=O)N[C@@H](CS)C(=O)O [IFX-331] (H-RRRRCWWWWC-OH) | 128 µg/mL | 265 µg/mL | 32 µg/mL | 32 µg/mL | –
16 µg/mL | 16 µg/mL | 128 µg/mL | 32 µg/mL | N=C(N)NCCC[C@H](NC(=O)[C@H](CCCNC(=N)N)NC(=O)[C@H](CCCNC(=N)N)NC(=O)[C@@H](N)CCCNC(=N)N)C(=O)N[C@H]1CSSC[C@@H](C(=O)O)NC(=O)[C@H](Cc2c[nH]c3ccccc23)NC(=O)[C@H](Cc2c[nH]c3ccccc23)NC(=O)[C@H](Cc2c[nH]c3ccccc23)NC(=O)[C@H](Cc2c[nH]c3ccccc23)NC1=O [IFX-333] (H-RRRRCWWWWC-OH; disulfide 5-10) | 64 µg/mL | 128 µg/mL | 32 µg/mL | 32 µg/mL | –
